Assay [1] in a line: Antifungal activity against Fusarium oxysporum f. sp. lycopersici 4287 assessed as reduction in mycelium growth at 50 ppm after 72 hrs by spectrophotometric analysis. Also on record: scale not given: the % may be the effect or the level left. The assay is classed as functional.
The subject of assay [2] is Penicillium digitatum. Put plainly: […] activity against Penicillium digitatum. The assay is classed as functional, organism-based.
The nature of assay [3]: Antifungal activity against Fusarium oxysporum f. sp. lycopersici 4287 assessed as reduction in mycelium growth at 100 ppm after 72 hrs by spectrophotometric analysis. The assay is classed as functional. Also on record: scale not given: the % may be the effect or the level left.

Values after ≈ are worked out from the molar mass of the structure shown. *1 amine or outer side, *2 acyl side, *3 side chain or, on linkers, in order; H or OH if unused. Where a SMILES comes first, the peptide text is derived from it. Bridges are numbered along the chain shown (N, C = ends). X1 = CCCCCCCCCCCCCCC[C@H](CC(=O)[*:1])O[*:2]; X2 = CCCCCCCCCCCCCC[C@H](CC(=O)[*:1])O[*:2]; X3 = CCCCCCCCCCCCC[C@H](CC(=O)[*:1])O[*:2]

One may read the EC50 as the concentration needed to bring the measured effect to its halfway point. Turning to `CCCCCCCCCCCCCCC[C@@H]1CC(=O)N[C@@H](CCC(=O)O)C(=O)N[C@@H](CC(C)C)C(=O)N[C@@H](CC(C)C)C(=O)N[C@@H](C)C(=O)N[C@@H](CC(=O)O)C(=O)N[C@@H](CC(C)C)C(=O)N[C@@H](CC(C)C)C(=O)O1` (ELLADLL; linker N-C via X1), the Activity in assay [1] is 25%; in assay [3] it was 56%. The response in assay [2] was half-maximal at 88.5 µg/mL (≈ 84.2 µM) (EC50). Turning to `CCCCCCCCCCCCCC[C@@H]1CC(=O)N[C@@H](CCC(=O)O)C(=O)N[C@@H](CC(C)C)C(=O)N[C@@H](CC(C)C)C(=O)N[C@@H](C)C(=O)N[C@@H](CC(=O)O)C(=O)N[C@@H](CC(C)C)C(=O)N[C@@H](CC(C)C)C(=O)O1` (ELLADLL; linker N-C via X2), the Activity in assay [3] came to 11%.

In the case of `CCCCCCCCCCCCC[C@@H]1CC(=O)N[C@@H](CCC(=O)O)C(=O)N[C@@H](CC(C)C)C(=O)N[C@@H](CC(C)C)C(=O)N[C@@H](C)C(=O)N[C@@H](CC(=O)O)C(=O)N[C@@H](CC(C)C)C(=O)N[C@@H](CC(C)C)C(=O)O1` (ELLADLL; linker N-C via X3), the Activity in assay [3] worked out at 29%.

Source of the values: ChEMBL document CHEMBL1687865, “Antifungal lipopeptides from Bacillus amyloliquefaciens strain BO7” (J Nat Prod, 2011).
